“Also recorded” adds a separate entry of the source. Peptide text beside a SMILES is read from it. * marks the point of attachment. Biotin = O=C1N[C@H]2[C@H](CS[C@H]2CCCCC(=O)*)N1; Ahx = NCCCCCC(=O)O
What was measured:
[1] = test system: C57BL/6 mice intranasally challenged with a lethal dose of lipopolysaccharide (LPS); assay: Lethal LPS-induced lung injury (ARDS) mouse model, survival; assay type: in vivo; details: p<0.01 vs LPS, n=10/group
Procedure: C57BL/6 mice were pretreated with either 1000 uM aCT1, 1000 uM scrambled aCT1, or vehicle control prior to inoculation with a lethal dose (35 mg/kg/mouse) of LPS. A further group was treated with aCT1 6 hrs post inoculation of LPS. n=10/group (p<0.01 LPS vs LPS pre-aCT1, p<0.01 LPS vs LPS post aCT1).
Studies were undertaken to assess whether delivery of aCT1 to the respiratory tract in animal models of ARDS would reduce epithelial and endothelial breakdown, thereby preserving the air-liquid barrier while preventing fluid accumulation and reducing immune cell infiltration, resulting in the amelioration of ARDS pathology and preserving lung function to improve survival. Using a well characterized mouse model of ARDS, we investigated whether aCT1 applied directly to the lungs could inhibit severe endotoxin induced lung injury. C57BL/6 mice were intranasally challenged with a lethal dose of lipopolysaccharide (LPS) and were treated with aCT1 immediately prior to LPS administration, or 6 h post LPS exposure (FIG. 2).

[2] = test system: normal human bronchial epithelial cells (NHBE); assay: Trans-epithelial resistance (TER) of NHBE monolayers after H2O2 exposure; assay type: cell-based; details: aCT1 pre-treatment, exposure to 100 mM H2O2; n=3
Procedure: (n=3, compared to H2O2 *:p<0.05, **:p<0.01, ***:p<0.0001)
(§1) To determine if aCT1 treatment preserves junctional integrity in human lung cells, human bronchial epithelial cells (NHBEs) were grown as confluent monolayers on Transwell inserts and trans-epithelial resistance (TER) recorded. TER readings measure electrical resistance across a cell monolayer and provide a quantitative metric of intercellular junction integrity.

[3] = test system: Human lung microvascular endothelial cells (HLMEC); assay: TER of HLMEC after LPS exposure; assay type: cell-based; details: n=3, p<0.0001 vs LPS
Procedure: Human lung microvascular endothelial cells (HLMEC) were exposed to 10 μg LPS. Cells were treated with aCT1 prior to exposure or 24 hrs post LPS insult, scrambled control, or sham control. […] (n=3, compared to LPS ***:p<0.0001).
as §1

[4] = Intravenous (bolus) toxicity of aCT1 in rats; assay type: in vivo, rat; details: rat, in vivo
Procedure: (§2) Clinical signs were only observed at aCT1 administration levels that are well above the therapeutic range of efficacy, following intravenous administration of aCT1 at ≥10 mg/kg (Maximum Tolerated Dose). The results of these studies uniformly support aCT1 tolerability when delivered locally and systemically via various routes.

rats = assay: Intravenous (bolus) toxicity of aCT1 in rats; assay type: in vivo, rat; details: intravenous bolus
Procedure: as §2

[5] = Source text: (§3) Clinical trials have been undertaken to assess safety of topical delivery of aCT1.
human subjects [6] = details: in vivo
Source text: as §3

human subjects [7] = details: local (topical) delivery, clinical trials; cited from earlier work

CC[C@H](C)[C@H](NC(=O)[C@H](CCC(=O)O)NC(=O)[C@H](CC(C)C)NC(=O)[C@H](CC(=O)O)NC(=O)[C@H](CC(=O)O)NC(=O)[C@@H]1CCCN1C(=O)[C@H](CCCNC(=N)N)NC(=O)[C@@H]1CCCN1C(=O)[C@H](CCCNC(=N)N)NC(=O)[C@H](CCCCN)NC(=O)[C@H](CCCCN)NC(=O)[C@H](Cc1c[nH]c2ccccc12)NC(=O)[C@@H]1CCCN1C(=O)[C@H](CCCCN)NC(=O)[C@H](CCCNC(=N)N)NC(=O)[C@H](CCCNC(=N)N)NC(=O)[C@H](CC(N)=O)NC(=O)[C@@H]1CCCN1C(=O)[C@H](Cc1ccccc1)NC(=O)[C@H](Cc1c[nH]c2ccccc12)NC(=O)[C@@H](NC(=O)[C@H](CCCCN)NC(=O)[C@@H]1CCCN1C(=O)[C@H](CCC(N)=O)NC(=O)[C@H](CCCNC(=N)N)NC(=O)CCCCCNC(=O)CCCC[C@@H]1SC[C@@H]2NC(=O)N[C@@H]21)[C@@H](C)CC)C(=O)O [aCT1] ({Biotin-Ahx}-RQPKIWFPNRRKPWKKRPRPDDLEI-OH; N-terminus and C-terminus assumed)
Survival / LPS-induced mortality ([1]; aCT1 treatment 6 hrs post LPS inoculation (35 mg/kg/mouse)): significant protection against LPS-induced mortality; also recorded: significantly improved survival
Survival / LPS-induced mortality ([1]; intranasal 1000 uM aCT1 pre-treatment prior to lethal LPS (35 mg/kg/mouse)): significant protection against LPS-induced mortality; also recorded: significantly improved survival
TER (epithelial barrier integrity) [2]: significantly increased TER readings; also recorded: stabilized intercellular junctions
TER (endothelial barrier integrity) ([3]; aCT1 pre-treatment prior to 10 μg LPS): significantly improved endothelial TER readings; also recorded: preserved barrier integrity
TER (endothelial barrier integrity) ([3]; aCT1 treatment 24 hrs post LPS insult (10 μg LPS)): significantly improved endothelial TER readings; also recorded: preserved barrier integrity
MTD ([4]; intravenous administration, read-out: Dose at which clinical signs were observed (Maximum Tolerated Dose)): ≥ 10 mg/kg
NOAEL ([4]; intravenous bolus, read-out: no-observable-adverse-effect level (NOAEL)): 5 mg/kg
Tolerability (rats): well tolerated
Immunogenicity (anti-aCT1 antibodies) ([5]; any preclinical study or clinical trial): not immunogenic
half-life ([5]; human): 15 to 20 min
Drug related adverse events (human subjects [6]): no drug related adverse events
Systemic exposure (pharmacokinetic studies in clinical trials) (human subjects [6]): no systemic exposure
Efficacy and safety in acute and chronic skin injuries (human subjects [7]): demonstrated the efficacy and safety

Source: patent US20230149508A1, “COMPOSITIONS AND METHODS FOR TREATING COMPLICATIONS OF VIRAL INFECTIONS AND OTHER RESPIRATORY DISORDERS” (priority 2020, published 2023)
